Measurements published in patent US9777045B2, “Immunogenic compositions and methods” (Longhorn Vaccines and Diagnostics, LLC, priority 2007, dated 2017).
Values joined by “and” are separate entries in the source; they are usually repeats but may differ in a detail not shown here. Identical values can stand only once.

What was measured:
[1] = tested on: live Wuhan (Influenza A/Wuhan/359/95, H3N2); assay: ELISA for anti-Wuhan antibodies (mouse sera 1:100); type: in vivo, mice; conditions: sera 1:100; for Absorbance values for individual sera tested on influenzavirus strain Wuhan, Pre: mice, pre-bleed; for Anti-Wuhan Absorbance Day 42 (group average) / Anti-Wuhan Absorbance Pre-Bleed (group average): averaged results
[2] = tested on: Influenza H1N1, H3N2, and H5N1; conditions: in vivo
[3] = tested on: peptide corresponding to the peptide-BSA conjugate used for injection; assay: ELISA for anti-peptide antibodies (individual mouse sera 1:100); type: in vivo, mice; conditions: for Average Absorbance Values of sera for tested peptides, Day 14 / Average Absorbance Values of sera for tested peptides, Day 29 / Average Absorbance Values of sera for tested peptides, Day 42 / Average Absorbance Values of sera for tested peptides, Pre: group average; for Average Absorbance Values of sera for tested peptides, Day 14 / Average Absorbance Values of sera for tested peptides, Day 29 / Average Absorbance Values of sera for tested peptides, Day 42 / Average Absorbance Values of sera for tested peptides, Pre / Individual absorbancy values of sera for tested peptides, Day 14 / Individual absorbancy values of sera for tested peptides, Day 29 / Individual absorbancy values of sera for tested peptides, Day 42: mice; for Average Absorbance Values of sera for tested peptides, Pre / Individual absorbancy values of sera for tested peptides, Pre: pre-bleed; for Individual absorbancy values of sera for tested peptides, Pre: mice injected with peptide-BSA conjugate, absorbance 450 nm; for Individual absorbancy values of sera for tested peptides, Pre / Individual absorbancy values of sera for tested peptides, Day 14 / Individual absorbancy values of sera for tested peptides, Day 29 / Individual absorbancy values of sera for tested peptides, Day 42: sera 1:100
Experimental: Individual sera were tested at a final dilution of 1:100 (in PBS-T) on Nunc Maxisorp® plates coated with the peptide corresponding to the peptide-BSA conjugate used for injection, at a concentration of 1 μg/ml in PBS (100 μl/well). One hundred microliters of diluted sera were reacted on the coated plate for 30 to 60 min at room temperature, and unbound material was removed by washing three times with PBS-T. Anti-peptide antibodies were detected with peroxidase-labeled goat anti-mouse IgG (γ-specific), diluted 1:10000 in PBS-T (100 μl/well; Jackson ImmunoResearch Laboratories, Inc., West Grove, Pa., USA). Following 30-min incubation, the wells were washed five times with PBS-T to removed unbound material and 100 μl of substrate (TMB; Kirkegaard & Perry Laboratories, Inc., Gaithersburg, Md., USA) was added to each well. The reaction was allowed to proceed for 15 min in the dark and stopped by addition of 100 μl of TMB Stop Solution per well (Kirkegaard & Perry). Absorbance was determined at 450 nm.

[4] = tested on: IL-4 induction in splenocytes; type: cell-based; conditions: mice immunized with peptide-BSA conjugates; 72 h in vitro treatment
[5] = tested on: IFN-γ induction in splenocytes; type: cell-based; conditions: mice immunized with peptide-BSA conjugates; 72 h in vitro treatment
Influenza H3N2 (Wuhan) = tested on: Influenza H3N2 (Wuhan); design: species or system cotton rats (Sigmodon hispidus); conditions: rat, in vivo
live H1N1 virus = tested on: live H1N1 virus; design: species or system cotton rats (Sigmodon hispidus); conditions: rat, in vivo
live H3N2 virus = type: in vivo, cotton rats (Sigmodon hispidus); conditions: rat, in vivo
[6] = 5 μg per injection, listed as 1911

Sequence | Absorbance values for individual sera tested on influenzavirus strain Wuhan, Pre ([1]; 5 μg per injection) | Absorbance values for individual sera tested on influenzavirus strain Wuhan, Pre ([1]; 20 μg per injection) | Anti-Wuhan Absorbance Day 42 (individual mice) ([1]; dose per inject 5 μg) | Anti-Wuhan Absorbance Pre-Bleed (individual mice) ([1]; dose per inject 5 μg) | Anti-Wuhan Absorbance Day 42 (individual mice) ([1]; dose per inject 20 μg) | Anti-Wuhan Absorbance Pre-Bleed (individual mice) ([1]; dose per inject 20 μg) | Anti-Wuhan Absorbance Day 42 (group average) ([1]; dose per injection 5 μg) | Anti-Wuhan Absorbance Pre-Bleed (group average) ([1]; dose per injection 5 μg) | Anti-Wuhan Absorbance Day 42 (group average) ([1]; dose per injection 20 μg) | Anti-Wuhan Absorbance Pre-Bleed (group average) ([1]; dose per injection 20 μg) | Average Absorbance Values of sera for tested peptides, Day 14 ([3]; 5 μg per injection) | Average Absorbance Values of sera for tested peptides, Day 29 ([3]; 5 μg per injection) | Average Absorbance Values of sera for tested peptides, Day 42 ([3]; 5 μg per injection) | Average Absorbance Values of sera for tested peptides, Pre ([3]; 5 μg per injection) | Average Absorbance Values of sera for tested peptides, Day 14 ([3]; 20 μg per injection) | Average Absorbance Values of sera for tested peptides, Day 29 ([3]; 20 μg per injection) | Average Absorbance Values of sera for tested peptides, Day 42 ([3]; 20 μg per injection) | Average Absorbance Values of sera for tested peptides, Pre ([3]; 20 μg per injection) | Individual absorbancy values of sera for tested peptides, Pre ([3]; 5 μg per injection) | Individual absorbancy values of sera for tested peptides, Pre ([3]; 20 μg per injection) | also measured
GNLFIAPGNLFIAPQYIKANSKFIGITEGNLFIAP [Peptide 5907] | 0.084 and 0.062 and 0.068 and 0.063 | 0.097 and 0.102 and 0.071 and 0.091 | 0.212 and 0.082 and 0.250 and 0.039 | 0.084 and 0.062 and 0.068 and 0.063 | 0.394 and 0.174 and 0.119 and 0.224 | 0.087 and 0.102 and 0.071 and 0.091 | 0.146 | 0.069 | 0.227 | 0.088 | 0.077 | 0.107 | 0.134 | 0.078 | 0.080 | 0.097 | 0.165 | 0.083 | 0.080 and 0.073 and 0.084 and 0.075 | 0.065 and 0.077 and 0.082 and 0.108 | immune response against Influenza H1N1, H3N2, and H5N1 [2]: raises an immune response; Individual absorbancy values of sera for tested peptides, Day 14 ([3]; 5 μg per injection): 0.096 and 0.061 and 0.079 and 0.073; Individual absorbancy values of sera for tested peptides, Day 29 ([3]; 5 μg per injection): 0.160 and 0.098 and 0.099 and 0.071; Individual absorbancy values of sera for tested peptides, Day 42 ([3]; 5 μg per injection): 0.165 and 0.099 and 0.139; Individual absorbancy values of sera for tested peptides, Day 14 ([3]; 20 μg per injection): 0.069 and 0.072 and 0.088 and 0.090; Individual absorbancy values of sera for tested peptides, Day 29 ([3]; 20 μg per injection): 0.073 and 0.080 and 0.141 and 0.093; Individual absorbancy values of sera for tested peptides, Day 42 ([3]; 20 μg per injection): 0.114 and 0.161 and 0.230 and 0.156; IL-4 response of spleen cell supernatants (in words) [4]: below the result of the untreated control
HYEECSCY [Peptide 5911] | 0.060 and 0.073 and 0.063 and 0.067 | 0.065 and 0.069 and 0.084 and 0.070 | 0.154 and 0.174 and 0.136 and 0.165 | 0.067 and 0.060 and 0.073 and 0.063 | 0.747 and 0.194 and 0.154 and 0.134 | 0.065 and 0.069 and 0.084 and 0.070 | 0.157 | 0.065 | 0.307 | 0.072 | 0.264 | 0.213 | 0.347 | 0.156 | 0.171 | 0.229 | 0.342 | 0.132 | 0.126 and 0.187 and 0.137 | 0.099 and 0.109 and 0.151 and 0.121 | IFN-γ response of spleen cell supernatants (in words) [5]: Weaker responses; Individual absorbancy values of sera for tested peptides, Pre [3, 6]: 0.174; Individual absorbancy values of sera for tested peptides, Day 14 ([3]; 5 μg per injection): 0.184 and 0.503 and 0.154; Individual absorbancy values of sera for tested peptides, Day 14 [3, 6]: 0.216; Individual absorbancy values of sera for tested peptides, Day 29 ([3]; 5 μg per injection): 0.201 and 0.303 and 0.188; Individual absorbancy values of sera for tested peptides, Day 29 [3, 6]: 0.161; Individual absorbancy values of sera for tested peptides, Day 42 ([3]; 5 μg per injection): 0.392 and 0.497 and 0.300; Individual absorbancy values of sera for tested peptides, Day 42 [3, 6]: 0.199; Individual absorbancy values of sera for tested peptides, Day 14 ([3]; 20 μg per injection): 0.102 and 0.136 and 0.106 and 0.123; Individual absorbancy values of sera for tested peptides, Day 29 ([3]; 20 μg per injection): 0.145 and 0.240 and 0.152 and 0.170; Individual absorbancy values of sera for tested peptides, Day 42 ([3]; 20 μg per injection): 0.180 and 0.304 and 0.218 and 0.158
SLLTEVETPIRNEWGLLTEVETPIRQYIKANSKFIGITE [PF2001] |  |  |  |  |  |  |  |  |  |  |  |  |  |  |  |  |  |  |  |  | viral inhibitory antibody to H3N2 after peptide boost (Influenza H3N2 (Wuhan)): boosted viral inhibitory antibody to H3N2; IgG antibody against live H1N1 virus (ELISA) (live H1N1 virus): IgG antibody rises were also induced; IgG titers to live H3N2 virus (ELISA) (live H3N2 virus): superior to two injections of M2e; IgG to live H3N2 virus after peptide boost of primed animals (ELISA) (live H3N2 virus): equivalent titer to group 6
